Experimental data from PubChem BioAssay AID1963870 (Molecular Pharmacology Branch, DTP, NCI, 2024).

Tested on: 292921-168-R-J2-PDC KRAS tumor spheroid viability
Assay: Anticancer human tumor 292921-168-R-J2-PDC patient-derived pancreatic carcinoma cell line growth inhibition [KRAS2]
Conditions: spheroids with HUVEC and MSC; for viability, T/C: stronger effect = lower value
Procedure, shortened: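 KRAS-mutant tumor cells were grown as spheroids with HUVEC endothelial cells and human MSCs as stroma. Targeted agents were tested alone and with KRAS pathway inhibitors. Doses started at or near clinical Cmax, or 10 microM, descending half-log.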

[1] = curve of first compound, second compound 0.1 µM
[2] = curve of first compound, second compound 0.316 µM
[3] = curve of first compound, second compound 1 µM
[4] = curve of first compound, second compound 3.16 µM
[5] = curve of first compound, second compound 10 µM
[6] = second compound 0.1 µM, first compound 0.0316 µM
[7] = second compound 0.1 µM, first compound 0.1 µM
[8] = second compound 0.1 µM, first compound 0.316 µM
[9] = second compound 0.1 µM, first compound 1 µM
[10] = second compound 0.1 µM, first compound 3.16 µM
[11] = second compound 0.1 µM, first compound 10 µM
[12] = second compound 0.316 µM, first compound 0.0316 µM
[13] = second compound 0.316 µM, first compound 0.1 µM
[14] = second compound 0.316 µM, first compound 0.316 µM
[15] = second compound 0.316 µM, first compound 1 µM
[16] = second compound 0.316 µM, first compound 3.16 µM
[17] = second compound 0.316 µM, first compound 10 µM
[18] = second compound 1 µM, first compound 0.0316 µM
[19] = second compound 1 µM, first compound 0.1 µM
[20] = second compound 1 µM, first compound 0.316 µM
[21] = second compound 1 µM, first compound 1 µM
[22] = second compound 1 µM, first compound 3.16 µM
[23] = second compound 1 µM, first compound 10 µM
[24] = second compound 3.16 µM, first compound 0.0316 µM
[25] = second compound 3.16 µM, first compound 0.1 µM
[26] = second compound 3.16 µM, first compound 0.316 µM
[27] = second compound 3.16 µM, first compound 1 µM
[28] = second compound 3.16 µM, first compound 3.16 µM
[29] = second compound 3.16 µM, first compound 10 µM
[30] = second compound 10 µM, first compound 0.0316 µM
[31] = second compound 10 µM, first compound 0.1 µM
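Also: drug exposure lasted seven days after spheroids formed for three days.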
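For viability, T/C in this document: percent of DMSO vehicle control viability which is 100%.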

Cn1nccc1Nc1nccc(-c2cc3c(s2)C(C)(C)N(CCN2CCOCC2)C3=O)n1
viability, T/C (compound 0.0316 µM): 80.7% [middle of 5 runs]
viability, T/C (compound 0.1 µM): 45.7% [middle of 5 runs]
viability, T/C (compound 0.316 µM): 21.1% [middle of 5 runs]
viability, T/C (compound 1 µM): 13.4% [middle of 4 runs]
viability, T/C (compound 3.16 µM): 11.2% [middle of 4 runs]
viability, T/C (compound 10 µM): 11.7% [middle of 5 runs]
IC50 (curve of compound): 86 nM [middle of 5 runs]

COC(=O)c1ccc2c(C(=Nc3ccc(N(C)C(=O)CN4CCN(C)CC4)cc3)c3ccccc3)c(O)[nH]c2c1 + COc1cc2nc(C)nc(NC(C)c3cc(N)cc(C(F)(F)F)c3)c2cc1OC1CCOC1
IC50 [1]: 0.856 µM
IC50 [2]: 0.62 µM
IC50 [3]: 0.382 µM
IC50 [4]: 0.221 µM
IC50 [5]: 0.0319 µM
viability, T/C [6]: 115%
viability, T/C [7]: 103%
viability, T/C [8]: 83%
viability, T/C [9]: 49.4%
viability, T/C [10]: 4.07%
viability, T/C [11]: 0.28%
viability, T/C [12]: 95.9%
viability, T/C [13]: 96.6%
viability, T/C [14]: 62.1%
viability, T/C [15]: 37.3%
viability, T/C [16]: 19.2%
viability, T/C [17]: 0.44%
viability, T/C [18]: 103%
viability, T/C [19]: 97.5%
viability, T/C [20]: 47%
viability, T/C [21]: 29.5%
viability, T/C [22]: 4.33%
viability, T/C [23]: 0.36%
viability, T/C [24]: 83.9%
viability, T/C [25]: 61.1%
viability, T/C [26]: 46.5%
viability, T/C [27]: 25.1%
viability, T/C [28]: 6.39%
viability, T/C [29]: 0.44%
viability, T/C [30]: 49%
viability, T/C [31]: 44.2%
viability, T/C (second compound 10 µM, first compound 0.316 µM): 22.8%
viability, T/C (second compound 10 µM, first compound 1 µM): 12.8%
viability, T/C (second compound 10 µM, first compound 3.16 µM): 1.24%
viability, T/C (second compound 10 µM, first compound 10 µM): 0.24%

CC(C)NCC(C(=O)N1CCN(c2ncnc3c2C(C)CC3O)CC1)c1ccc(Cl)cc1 (configuration not stated) + C=CC(=O)N1CCN(c2nc(OCC3CCCN3C)nc3c2CCN(c2cccc4cccc(C)c24)C3)CC1CC#N
IC50 (curve of first compound, second compound 0.0316 µM): > 10 µM
IC50 [1]: > 10 µM
IC50 [2]: 6.01 µM
IC50 [3]: < 0.0316 µM
IC50 [4]: < 0.0316 µM
viability, T/C (second compound 0.0316 µM, first compound 0.0316 µM): 88%
viability, T/C (second compound 0.0316 µM, first compound 0.1 µM): 84.6%
viability, T/C (second compound 0.0316 µM, first compound 0.316 µM): 84.5%
viability, T/C (second compound 0.0316 µM, first compound 1 µM): 82%
viability, T/C (second compound 0.0316 µM, first compound 3.16 µM): 73.9%
viability, T/C (second compound 0.0316 µM, first compound 10 µM): 54.7%
viability, T/C [6]: 85.2%
viability, T/C [7]: 78.6%
viability, T/C [8]: 85.3%
viability, T/C [9]: 79.3%
viability, T/C [10]: 74.4%
viability, T/C [11]: 51.8%
viability, T/C [12]: 71.5%
viability, T/C [13]: 68.5%
viability, T/C [14]: 65.1%
viability, T/C [15]: 69.2%
viability, T/C [16]: 59%
viability, T/C [17]: 42.3%
viability, T/C [18]: 36.7%
viability, T/C [19]: 28.8%
viability, T/C [20]: 28.9%
viability, T/C [21]: 32.1%
viability, T/C [22]: 28.1%
viability, T/C [23]: 21%
viability, T/C [24]: 0.1%
viability, T/C [25]: 0.09%
viability, T/C [26]: 0.09%
viability, T/C [27]: 0.1%
viability, T/C [28]: 0.11%
viability, T/C [29]: 0.21%

CC(C)n1nc(-c2ccc3oc(N)nc3c2)c2c(N)ncnc21 + C=CC(=O)N1CCN(c2nc(=O)n(-c3c(C)ccnc3C(C)C)c3nc(-c4c(O)cccc4F)c(F)cc23)C(C)C1
IC50 [1]: 0.00689 µM
IC50 [2]: 0.00961 µM
IC50 [3]: 0.0117 µM
IC50 [4]: 0.00493 µM
IC50 [5]: < 0.000316 µM
viability, T/C (second compound 0.1 µM, first compound 0.000316 µM): 107%
viability, T/C (second compound 0.1 µM, first compound 0.001 µM): 88.6%
viability, T/C (second compound 0.1 µM, first compound 0.00316 µM): 62%
viability, T/C (second compound 0.1 µM, first compound 0.01 µM): 44.5%
viability, T/C [6]: 32.8%
viability, T/C [7]: 27%
viability, T/C (second compound 0.316 µM, first compound 0.000316 µM): 111%
viability, T/C (second compound 0.316 µM, first compound 0.001 µM): 99.7%
viability, T/C (second compound 0.316 µM, first compound 0.00316 µM): 66.9%
viability, T/C (second compound 0.316 µM, first compound 0.01 µM): 53.6%
viability, T/C [12]: 33.6%
viability, T/C [13]: 29.7%
viability, T/C (second compound 1 µM, first compound 0.000316 µM): 121%
viability, T/C (second compound 1 µM, first compound 0.001 µM): 99.7%
viability, T/C (second compound 1 µM, first compound 0.00316 µM): 77.1%
viability, T/C (second compound 1 µM, first compound 0.01 µM): 50.4%
viability, T/C [18]: 38.3%
viability, T/C [19]: 32.3%
viability, T/C (second compound 3.16 µM, first compound 0.000316 µM): 68.4%
viability, T/C (second compound 3.16 µM, first compound 0.001 µM): 72.6%
viability, T/C (second compound 3.16 µM, first compound 0.00316 µM): 55.3%
viability, T/C (second compound 3.16 µM, first compound 0.01 µM): 40.1%
viability, T/C [24]: 36.7%
viability, T/C [25]: 30.9%
viability, T/C (second compound 10 µM, first compound 0.000316 µM): 26.3%
viability, T/C (second compound 10 µM, first compound 0.001 µM): 33.3%
viability, T/C (second compound 10 µM, first compound 0.00316 µM): 30%
viability, T/C (second compound 10 µM, first compound 0.01 µM): 31.2%
viability, T/C [30]: 29.5%
viability, T/C [31]: 27.1%
